Measurements as given in patent US6558900B2, “Regulation of apoptosis and in vitro model for studies thereof” (Emory University, priority 1996, dated 2003).

System: CPP32
Test: Apaf-2 activity: recombining with phosphocellulose flow through fraction (Apaf-1) and 35S-labeled CPP32
Format: biochemical, human
Settings: phosphocellulose fraction alone, with or without 1 mM dATP
Protocol: FIG. 3 illustrates fractionation and reconstitution of dATP-dependent activation of CPP32 by phosphocellulose chromatography. HeLa cell S-100 was subjected to phosphocellulose chromatography and the column flow through and bound material were collected as described in the Examples. Aliquots (10 μl) of HeLa S-100 (50 μg) (lanes 1 and 2), phosphocellulose flow through fraction (PC-FT) (lanes 3 and 4), phosphocellulose bound fraction (PC-B) (lanes 5 and 6), and the mixture of phosphocellulose flow through and bound material (lanes 7 and 8) were incubated with aliquots of 3 μl in vitro translated, ^35S-labeled CPP32 at 30° C. for 1 hr in the absence (lanes 1,3,5,7) or presence (lanes 2,4,6,8) of 1 mM dATP. The samples were subjected to SDS-PAGE, transferred to a nitrocellulose filter, and the filter was exposed to film for 16 hours at room temperature.
The Apaf-2 activity that bound to the phosphocellulose column was purified through the Mono S column as described in Example 7. […] In FIG. 4B, aliquots (30 μl) of the Mono-S fractions were subjected to 15% SDS-PAGE and the proteins were visualized by silver staining.
Aliquots of 0.2 μg of Apaf-2 purified through the Mono S column (lanes 1, 2), cytochrome c from bovine heart (lanes 3, 4), and rat liver (lanes 5, 6) were incubated with aliquots of 10 μl phosphocellulose flowthrough fraction and 3 μl in vitro translated, 35S-labeled CPP32 at 30° C. for 1 hr in a final volume of 20 μl buffer A in the absence (lanes 1,3,5) or presence of (lanes 2, 4, 6) 1 mM dATP. Samples were subjected to SDS-PAGE and transferred to a nitrocellulose filter which was then exposed to a film for 16 hr at room temperature.
To isolate the protein(s) required for the activation of CPP32, HeLa S-100 was loaded onto a phosphocellulose column, and the flow-through and bound fractions were collected. […] When the flowthrough and bound fractions were mixed, CPP32-activating activity was restored (lanes 7-8). […] The factor(s) that flow through the phosphocellulose column are designated apoptotic protease activating factor-1 (Apaf-1) and the factor that bound to the column is designated apoptotic protease activating factor-2 (Apaf-2). It is understood that “Apaf-1” may represent more than one protein or it may represent a combination of protein(s) and other factors.
Apaf-2 activity was assayed by recombining with Apaf-1 after purification by the following steps. First, the Apaf-2 fraction was subjected to 50% ammonium sulfate precipitation. All of the activity remained in the supernatant while most of the protein precipitated (Table I). The supernatant was loaded onto a phenyl-sepharose (hydrophobic interaction) column and the activity was eluted with 1 M ammonium sulfate. The eluate was passed through a gel filtration column; active fractions were subjected to sequential Mono Q (anion exchange) and Mono S (cation exchange) chromatography. The Apaf-2 activity flowed through the Mono Q column, and the flow through was directly loaded onto the Mono S column. Bound Apaf-2 activity was then eluted with a 100-300 mM NaCl linear salt gradient. The fractions from the Mono S column were collected and assayed. […] The active fractions were analyzed by SDS-PAGE (FIG. 4B). A protein of apparent molecular mass of 15 kDa was co-eluted with the activity. No other proteins were detected by silver staining in the active Apaf-2 fractions.
CPP32 was translated and purified as described above. […]

Substance: Apaf-2: 15 kDa factor bound to phosphocellulose column, purified from HeLa S-100, identified as human cytochrome c
- dATP-dependent activation of CPP32 by fraction alone: Neither fraction alone supported dATP-dependent activation of CPP32
